Series [1] concerns wild-type zebrafish larvae. In words: Maximum tolerated concentration (MTC) determination in zebrafish larvae. Format: in vivo, Danio rerio. The conditions noted are these: after 24-hour exposure; Table 3. Here is the method:
Determination of maximum tolerated concentration was completed by placing 5 days post fertilization (dpf) wild-type zebrafish larvae in a 24 well plate at 6 fish per well, and one compound concentration per well. […] Death was determined by the absence of heartbeat. Additional endpoints were used to assess toxicity at non-lethal concentrations such as startle capacity (poke stimulus), abnormalities in swimming behavior (loss of dorsoventral balance), and gross morphological deformities (bent body). […] The MTC determination was used to select three doses of each compound (low, medium, high dose) to be used in behavioral assays.

Series [2] has as its system wild-type zebrafish larvae. In words: General locomotor assay in zebrafish larvae (locomotor activity, repetitive behaviors). Format: in vivo, Danio rerio. The conditions noted are these: Table 3; test concentration not given; N = 12. Here is the method:
Five days post fertilization (dpf) zebrafish larvae were exposed to a range of nonlethal concentrations of the compounds in a 24-well plate with appropriate controls. The movement of each larval zebrafish was monitored with the Noldus behavior recording system (Noldus Information Technology, Leesburg VA) and quantified using EthoVision® XT 15 software (Noldus Information Technology, Leesburg VA). The plate was immediately placed in the incubator for a 30-minute exposure period. After 30 minutes, the plate was transferred to the Noldus system and swimming behavior was recorded in 100% light for 30 minutes to measure spontaneous swimming behavior. The light was switched off for 10 minutes (dark period) and then switched on for 10 minutes (light period), which was then repeated for two additional cycles. In total, the larvae were exposed to three cycles of alternating 10-minute dark and light periods (100% darkness-to-100% light). […]
All data for exposure and the behavioral end points were analyzed by one-way ANOVA (factor: drug conc) followed by a Dunnett's multiple comparisons test for post hoc significance between drug concentration and control group. Statistically significant differences are noted as follows: *, p<0.05; **, p<0.01; ***, p<0.001.

The target in series [3] is T1, M1 muscarinic receptors expressed in CHO cells (Homo sapiens, UniProt P11229).
T1 construct: expressed in transfected cells; host or cells: CHO (CHO-hM1, stably transfected)
T1 sequence (P11229 1-460): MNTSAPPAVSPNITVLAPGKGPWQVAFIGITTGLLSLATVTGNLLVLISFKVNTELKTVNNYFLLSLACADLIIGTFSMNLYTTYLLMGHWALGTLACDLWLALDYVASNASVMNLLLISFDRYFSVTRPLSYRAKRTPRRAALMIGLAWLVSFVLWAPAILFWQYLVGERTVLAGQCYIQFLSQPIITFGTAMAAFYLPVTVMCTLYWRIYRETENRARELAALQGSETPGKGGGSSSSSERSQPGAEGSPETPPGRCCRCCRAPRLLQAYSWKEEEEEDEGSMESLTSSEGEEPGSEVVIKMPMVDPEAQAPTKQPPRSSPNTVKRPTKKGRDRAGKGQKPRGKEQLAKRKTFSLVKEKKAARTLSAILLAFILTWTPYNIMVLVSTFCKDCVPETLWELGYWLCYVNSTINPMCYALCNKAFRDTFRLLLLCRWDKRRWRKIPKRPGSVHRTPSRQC
Description: [3H]-arachidonic acid release screen with and without ACh and modulator. Format: cell-based. To be noted: for Modulation of ACh activity (in words): [3H]AA release; for Modulation of ACh activity (in words) / Intrinsic agonist activity (in words): modulator 10 μM; for Intrinsic agonist activity (in words): without ACh. Here is the method:
CHO cells expressing human M1 muscarinic receptors were cultured at 37° C. in a 5% CO2 atmosphere in F12 medium supplemented with 5% fetal bovine serum, 100 units/mL penicillin, and 100 μg/mL streptomycin.
Measurement of [^3H]AA release was performed. Stably transfected CHO-hM1 or CHO-hM3 cells were seeded on 24-well plates (Greiner Bio-One GmbH, Frickenhausen, Germany) at a density of 5.0×10^4 cells/well in 0.5 ml of F-12 medium. Cells were incubated until they attached (approximately 3 h), followed by the addition of [^3H]AA to a final concentration of 0.05 μCi of [^3H]AA per well. The cells were then grown for 16 to 20 h before the assay was performed. [^3H]AA release was measured in Eagle's basal medium with 20 mM HEPES and 2 mg/ml fatty acid-free bovine serum albumin (EM-BSA). Cells were rinsed twice with EM-BSA, followed by the addition of EM-BSA media containing experimental agents and incubated for 1 h at 37° C. The assay was terminated by aspiration of the media, and the amount of [^3H]AA released was determined by liquid scintillation counting (Beckman-Coulter LS6500).
For some assays, pretreatment with phenoxybenzamine (POB) was employed, as indicated, to reduce the number of available receptors per cell. Stock POB was made up at 10 mM in ethanol and stored at −20° C. Each well was pretreated with 0.5 ml of the appropriate concentration in PBS with 1 mM CaCl2 and 1 mM MgCl2 (PBS++) for 30 min at 37° C., followed by 5 washes with PBS++. After pretreatment, the normal protocol was followed as above.
Tabulated [^3H]AA release data are represented as a fraction of maximal release in the presence of 100 μM ACh or as the fraction of release elicited by the appropriate concentration of ACh alone, as indicated dose-response curves were normalized to the maximal response of ACh without allosteric ligand. Some response curves were analyzed using the empirical four-parameter equation: […]
Disintegration per minute (DPM) values for a single compound were obtained in triplicate, and each compound was evaluated on three separate 24-well plates. The mean values for each condition from each of the three 24-well plates were used for the statistical analysis. The baseline mean was subtracted from each value, then normalized to the mean response produced by 100 μM ACh (set at 1.0). Statistical analyses were completed on the normalized values via one-way repeated measures ANOVA with Tukey's post hoc test. Statistically significant differences are noted as follows: *, p<0.05; **, p<0.01; ***, p<0.001.

Where [4] appears, read: 10 μM modulator, Table 4, N = 4-5.

Marks after values point to notes of the source that are not given here.

As for `CCCCc1oc2ccccc2c1C(=O)c1cc(I)c(OCCN(CC)CC)c(I)c1` [Amiodarone, reference compound], the “Maximum Tolerated Concentration” value in series [1] amounted to 10 µM.
For the molecule `COc1ccc(Cn2cc(C(=O)O)c(=O)c3ccccc32)cc1` [BQCA, reference compound], in series [2], the “Angular Velocity” value was 141.8 ± 14.9* % of control, the “Total Distance Moved” value is on record as 72.0 ± 10.0* % of control and the “Variance of Turn Angle” value is on record as 119.6 ± 7.0* % of control. In addition, in series [3] (3 μM modulator, Table 1), the “Ratio of response of ACh with modulator to response of ACh alone, 0.1 μM ACh” value (“Ratio of response of ACh … 0.1 μM ACh” below) amounted to 2.43 ± 0.19; the “Ratio of response of ACh with modulator to response of ACh alone, 100 μM ACh” value (shortened to “Ratio of response of ACh … 100 μM ACh”) is 0.99 ± 0.02; the “Stimulation of [3H]AA release, No ACh (fraction of stimulation above the control)” value turned out to be 0.06 ± 0.06. In series [3] (10 μM modulator, Table 1), the “Ratio of response of ACh … 0.1 μM ACh” value came to 2.34 ± 0.23; the “Ratio of response of ACh … 100 μM ACh” value is recorded as 0.86 ± 0.03; the “Stimulation of [3H]AA release, No ACh (fraction of stimulation above the control)” value is given as 0.37 ± 0.04.
With `CCCCc1oc2ccccc2c1C(=O)c1cc(I)c(OCCNCC)c(I)c1.Cl` [Compound 1, (2-butylbenzofuran-3-yl)(4-(2-(ethylamino)ethoxy)-3,5-diiodophenyl)methanone hydrochloride], the “Maximum Tolerated Concentration” value in series [1] was determined as 3 µM. For the same molecule, in series [3] (10 μM modulator, Table 1), the “Ratio of response of ACh … 0.1 μM ACh” value amounted to 0.75 ± 0.08; the “Ratio of response of ACh … 100 μM ACh” value is listed as 0.67 ± 0.02; the “Stimulation of [3H]AA release, No ACh (fraction of stimulation above the control)” value was 0.22 ± 0.01. Moreover, the “Modulation of ACh activity (in words)” value in series [3] is “weaker efficacy PAM relative to amiodarone”.
For the molecule `CCCCc1oc2ccccc2c1C(=O)c1cc(I)c(OCCN(CC)C(C)=O)c(I)c1` [Compound 5a, N-(2-(4-(2-butylbenzofuran-3-carbonyl)-2,6-diiodophenoxy)ethyl)-N-ethylacetamide], the “Maximum Tolerated Concentration” value in series [1] was 10 µM. Further, the “Increase of mAChR activity compared to treatment with ACh alone” value in series [3] (10 μM modulator) was found to be 70%. In series [3] (10 μM modulator, Table 1), the “Ratio of response of ACh … 0.1 μM ACh” value was 2.22 ± 0.26; the “Ratio of response of ACh … 100 μM ACh” value is listed as 1.58 ± 0.03; the “Stimulation of [3H]AA release, No ACh (fraction of stimulation above the control)” value is reported as 0.17 ± 0.04. Further, the “Intrinsic agonist activity (in words)” value in series [3] is recorded as “significant intrinsic agonist activity”.
As for `CCCCc1oc2ccccc2c1C(=O)c1cc(I)c(OCCN(CC)C(=O)c2ccccc2)c(I)c1` [Compound 5b, N-(2-(4-(2-butylbenzofuran-3-carbonyl)-2,6-diiodophenoxy)ethyl)-N-ethylbenzamide], the “Maximum Tolerated Concentration” value in series [1] was 10 µM. The “Increase of mAChR activity compared to treatment with ACh alone” value in series [3] (10 μM modulator) turned out to be 80%. For the same molecule, in series [3] (10 μM modulator, Table 1), the “Ratio of response of ACh … 0.1 μM ACh” value is on record as 1.34 ± 0.05; the “Ratio of response of ACh … 100 μM ACh” value is reported as 1.26 ± 0.05; the “Stimulation of [3H]AA release, No ACh (fraction of stimulation above the control)” value is 0.02 ± 0.01. The “Intrinsic agonist activity (in words)” value in series [3] was “lacked intrinsic activity”.
For the molecule `CCCCc1oc2ccccc2c1C(=O)c1ccc(OC)cc1` [Compound 6a, (2-butylbenzofuran-3-yl)(4-methoxyphenyl)methanone], the “Maximum Tolerated Concentration” value in series [1] was determined as 3 µM. Moreover, in series [3] (10 μM modulator, Table 1), the “Ratio of response of ACh … 0.1 μM ACh” value was found to be 1.18 ± 0.06; the “Ratio of response of ACh … 100 μM ACh” value amounted to 1.03 ± 0.03; the “Stimulation of [3H]AA release, No ACh (fraction of stimulation above the control)” value came to 0.05 ± 0.01.
Take `CCCCc1oc2ccccc2c1C(=O)c1cc(I)c(OC)c(I)c1` [Compound 6b, (2-butylbenzofuran-3-yl)(3,5-diiodo-4-methoxyphenyl)methanone]: the “Maximum Tolerated Concentration” value in series [1] was found to be 30 µM. In addition, in series [3] (10 μM modulator, Table 1), the “Ratio of response of ACh … 0.1 μM ACh” value is 1.6 ± 0.07; the “Ratio of response of ACh … 100 μM ACh” value was 1.32 ± 0.08; the “Stimulation of [3H]AA release, No ACh (fraction of stimulation above the control)” value is recorded as 0.06 ± 0.01. The “Modulation of ACh activity (in words)” value in series [3] is given as “increased ACh activity”.
As to `CCCCc1oc2ccccc2c1C(=O)c1ccc(OCCN(CC)CC)cc1` [Compound 6c, (2-butylbenzofuran-3-yl)(4-(2-(diethylamino)ethoxy)phenyl)methanone], the “Maximum Tolerated Concentration” value in series [1] is 3 µM. In series [3] (10 μM modulator, Table 1), the “Ratio of response of ACh … 0.1 μM ACh” value was 0.46 ± 0.17; the “Ratio of response of ACh … 100 μM ACh” value is reported as 1.05 ± 0.05; the “Stimulation of [3H]AA release, No ACh (fraction of stimulation above the control)” value is listed as 0.05 ± 0.04. For the same molecule, in series [3], the “Modulation of ACh activity (in words)” value was “decreased ACh activity”.
For the molecule `COc1ccc(CN2C(=O)C(=O)c3ccccc32)cc1I` [Compound 8b, 1-(3-iodo-4-methoxybenzyl)indoline-2,3-dione], the “Maximum Tolerated Concentration” value in series [1] amounted to 10 µM. In series [3] (10 μM modulator, Table 1), the “Ratio of response of ACh … 0.1 μM ACh” value is on record as 1.81 ± 0.04; the “Ratio of response of ACh … 100 μM ACh” value was 1.24 ± 0.01; the “Stimulation of [3H]AA release, No ACh (fraction of stimulation above the control)” value is 0.08 ± 0.01.
As for `COc1ccc(CN2C(=O)C(=O)c3ccccc32)cc1Br` [Compound 8d, 1-(3-bromo-4-methoxybenzyl)indoline-2,3-dione], the “Maximum Tolerated Concentration” value in series [1] was found to be 100 µM. Also, in series [3] (10 μM modulator, Table 1), the “Ratio of response of ACh … 0.1 μM ACh” value came out at 1.31 ± 0.06; the “Ratio of response of ACh … 100 μM ACh” value was determined as 0.87 ± 0.01; the “Stimulation of [3H]AA release, No ACh (fraction of stimulation above the control)” value is on record as 0.04 ± 0.01.
On to `COc1c(I)cc(Cn2cc(C(=O)O)c(=O)c3ccccc32)cc1I` [GK-1-47], for which, in series [3] (setting [4]), the “Ratio of response of ACh … 0.1 μM ACh” value is 2.46 ± 0.13; the “Ratio of response of ACh … 100 μM ACh” value is reported as 1.33 ± 0.04; the “Stimulation of [3H]AA release, No ACh (fraction of stimulation above the control)” value was 0.24 ± 0.01.
As for `O=C1C(=O)N(Cc2ccc(Br)cc2)c2ccccc21` [VU0119498, reference compound], in series [3] (10 μM modulator, Table 1), the “Ratio of response of ACh … 0.1 μM ACh” value was found to be 1.22 ± 0.34; the “Ratio of response of ACh … 100 μM ACh” value is 1.04 ± 0.07; the “Stimulation of [3H]AA release, No ACh (fraction of stimulation above the control)” value came out at 0.07 ± 0.00.
